Consider 27 compounds from patent US20060116390A1, “Hepatitis c virus inhibitors” (priority 2003, published 2006).

This assay deals with HCV proteins in Rep5.1 cells (replicon cell line). Kind of assay: Inhibitory activity of HCV: cell-based ELISA in replicon cell line Rep5.1 (decrease of HCV proteins). Also on record: species or system hepatitis C virus. The following applies: Rep5.1 cells, 72 hours with drug. Here is the method: In order to, screen and evaluate the anti-HCV therapeutic agents in cell level, the following experiments are carried out using a replicon cell line, Rep5.1 [Lohmann, et al., Replication of subgenomic hepatitis C virus RNAs in a hepatoma cell line. Science 285:110-113 (1999)].
Rep5.1 cells, the replicon cell line, are cultured in DMEM-10 containing 500 μg/ml of G418. The Rep5.1 cells in log phase are suspended by trypsin treatment, and 5000 cells are distributed to each well of a 96-well plate. After 4 hours when the cells are attached to the plate, the serially diluted drug is added to each well. After 48 hours, a part of the treated cells are observed by microscope, and MTT assay is carried out to evaluate the drug toxicity. The cytotoxicity is estimated in percentage based on the control containing no drug. After 72 hours, the remaining cells are fixed by methanol/acetone (50/50, v/v), and the decrease of HCV proteins is measured by using HCV antibody. The extent of decrease is estimated in percentage based on the control containing no drug, and the concentration of drug at which 50% of proteins is decreased is determined to be IC50. The compounds showing activity via this procedure are validated by Western blotting. In order to find out whether the decrease of HCV protein is related to the decrease of replicon RNA, Rep5.1 cell is treated with some selected drugs for 72 hours, RNA is purified, dot blotted, and hybridized with isotope labelled nucleic acid to determine the amounts of actin mRNA and replicon RNA, and finally the amount of RNA is compared.
Plasma samples from 300 persons positive to the hepatitis C antibody test were screened by antibody diagnosis kit produced by LG life Sciences Ltd. (LG HCD3.0 TMB) to select 40 plasma samples having high titer. Replicon cell line and Huh-7 cell line each were cultured in a 96-well cell culture plate, fixed by methanol/acetone (1:1) mixture, and blocked by 3% skimmed milk. The 40 plasma sanples selected above were 100-fold diluted and aided thereto, and the bound antibodies were probed by anti-Human goat antibody (Sigma) to which Horse Radish Peroxidase is attached. As a result, 12 plasma samples having low specificity to Huh-7 cell line, but high specificity to replicon cell line were obtained. These plasma samples were used in the following cell-based ELISA.
Rep5.1 cells were cultured in DMEM-10 containing 500 μg/ml of G418. The Rep5.1 cells in log phase were suspended by trypsin treatment, and 5000 cells were distributed to each well of a 96-well pate. After 4 hours for which the cells were attached to the plate, the serially diluted drug was added to each well. After 72 hours, the cells were fixed by methanol/acetone (50/50, v/v), and the decrease of HCV proteins was measured by using HCV antibody obtained as above. The extent of decrease was estimated in percentage based on the control containing no drug, and the concentration of drug at which 50% of proteins was decreased was determined to be IC50.
(ELISA stands for enzyme-linked immunosorbent assay.)

Setting [1] is: Hepatitis C virus, 72 h, concentration at which 50% of HCV proteins was decreased, Table 2, read-out: IC50.
[2] abbreviates: Hepatitis C virus, 72 h, decrease of HCV proteins measured by HCV antibody, Table 1, read-out: Level (IC50 values classified).
The mark [3] stands for this setting: concentration at which 50% of HCV proteins was decreased, Table 2, read-out: IC50.

Like-named read-outs stand apart in the source and are kept apart here.

As a reminder, the IC50 is the concentration that gives 50% inhibition.

For the compound `CC1=C(C(=O)OCCc2ccsc2Br)C(CO)NC(=S)N1` (stereo not shown) [10″, 4-hydroxymethyl-6-methyl-2-thioxo-1,2,3,4-tetrahydro-pyrimidine-5-carboxylic acid 2-(2-bromo-thiophen-3-yl)-ethyl ester], the IC50 is, setting by setting: under setting [1], 7 µM; under setting [2], 1 to 10 µM.
In the case of `CC1=C(C(=O)OCC#Cc2ccccc2)C(CO)NC(=S)N1` (stereo not shown) [40″, 4-hydroxymethyl-6-methyl-2-thioxo-1,2,3,4-tetrahydro-pyrimidine-5-carboxylic acid 3-phenyl-prop-2-inyl ester], the 50% inhibitory concentration (IC50) under setting [3] was greater than 100 µM.
Turning to `CC1=C(C(=O)OCc2ccc3ncsc3c2)CNC(=S)N1` [Compound 248, 6-methyl-2-thioxo-1,2,3,4-tetrahydro-pyrimidine-5-carboxylic acid benzothiazol-6-ylmethyl ester], the half-maximal inhibitory concentration (IC50) is, setting by setting: under setting [1], 5 µM; under setting [2], 1 to 10 µM.
For `CC1=C(C(=O)OCCc2cccc(C)c2)CNC(=S)N1` [Compound 172, 6-methyl-2-thioxo-1,2,3,4-tetrahydro-pyrimidine-5-carboxylic acid 2-m-tolyl-ethyl ester], in that order: less than 0.4 µM and less than 1 µM.
For `CCOc1ccc(CCOC(=O)C2=C(C)NC(=S)NC2CO)cc1` (stereo not shown) [60″, 4-hydroxymethyl-6-methyl-2-thioxo-1,2,3,4-tetrahydro-pyrimidine-5-carboxylic acid 2-(4-ethoxy-phenyl)-ethyl ester], in that order: 2.5 µM and 1 to 10 µM.
For `CC1=C(C(=O)OCc2ccsc2)C(CF)NC(=S)N1` (stereo not shown) [Compound 253, 4-fluoromethyl-6-methyl-2-thioxo-1,2,3,4-tetrahydro-pyrimidine-5-carboxylic acid thiophen-3-ylmethyl ester], in that order: 13 µM and 10 to 20 µM.
`C=CCC(C=C)OC(=O)C1=C(C)NC(=S)NC1` (stereo not shown) [Compound 55, 6-methyl-2-thioxo-1,2,3,4-tetrahydro-pyrimidine-5-carboxylic acid 1-vinyl-but-3-enyl ester]: the IC50 runs as follows: under setting [1], 2.5 µM; under setting [2], 1 to 10 µM.
As for `COc1ccc(CSC(=O)C2=C(C)NC(=S)NC2)cc1` [Compound 121, 6-methyl-2-thioxo-1,2,3,4-tetrahydro-pyrimidine-5-carbothioic acid S-(4-methoxy-benzyl)ester], the 50% inhibitory concentration (IC50) under setting [1] was found to be 0.5 µM and the IC50 under setting [2] is less than 1 µM.
For `COc1ccc(COC(=O)C2=C(C)NC(=S)NC2)cc1` [Compound 8, 6-methyl-2-thioxo-1,2,3,4-tetrahydro-pyrimidine-5-carboxylic acid 4-methoxy-benzyl ester] the same measures were 3 µM and 1 to 10 µM.
For `CC1=C(C(=O)OCCc2ccsc2)C2(CCC2)NC(=S)N1` [7′, 8-methyl-6-thioxo-5,7-diaza-spiro[3,5]non-8-en-9-carboxylic acid 2-thiophen-3-yl-ethyl ester], in that order: 8 µM and 1 to 10 µM.
For `CC1=C(C(=O)OCCCc2cccs2)C(CO)NC(=S)N1` (stereo not shown) [4″, 4-hydroxymethyl-6-methyl-2-thioxo-1,2,3,4-tetrahydro-pyrimidine-5-carboxylic acid 3-thiophen-2-yl-propyl ester], in that order: 2.5 µM and 1 to 10 µM.
Consider `CC1=C(C(=O)OCCc2c(F)cccc2Cl)C(CO)NC(=S)N1` (stereo not shown) [59″, 4-hydroxymethyl-6-methyl-2-thioxo-1,2,3,4-tetrahydro-pyrimidine-5-carboxylic acid 2-(2-chloro-6-fluoro-phenyl)-ethyl ester], for which the half-inhibitory concentration (IC50) is 2.5 µM under setting [1] and 1 to 10 µM under setting [2].
On to `CC1=C(C(=O)OCc2ccc(F)cc2Cl)C(CO)NC(=S)N1` (stereo not shown) [48″, 4-hydroxymethyl-6-methyl-2-thioxo-1,2,3,4-tetrahydro-pyrimidine-5-carboxylic acid 2-chloro-4-fluoro-benzyl ester], for which the concentration for half-maximal inhibition (IC50) runs as follows: under setting [1], 43 µM; under setting [2], greater than 20 µM.
For `COC1=C(C(=O)OCc2ccccc2)CNC(=S)N1` [Compound 63, 6-methoxy-2-thioxo-1,2,3,4-tetrahydro-pyrimidine-5-carboxylic acid benzyl ester] the same measures were greater than 100 µM and greater than 20 µM.
For `CC1=C(C(=O)OCc2scc(C)c2Cl)CNC(=S)N1` [Compound 207, 6-methyl-2-thioxo-1,2,3,4-tetrahydro-pyrimidine-5-carboxylic acid 3-chloro-4-methyl-thiophen-2-ylmethyl ester] the same measures were 0.3 µM and less than 1 µM.
Take `CC1=C(C(=O)SCc2ccco2)CNC(=S)N1` [38′, 6-methyl-2-thioxo-1,2,3,4-tetrahydro-pyrimidine-5-carbothioic acid S-furan-2-ylmethyl ester]: the half-maximal inhibitory concentration (IC50) reads like this: under setting [1], 0.7 µM; under setting [2], less than 1 µM.
For `CC1=C(C(=O)OCCCc2ccsc2F)C(CF)NC(=S)N1` (stereo not shown) [52′, 4-fluoromethyl-6-methyl-2-thioxo-1,2,3,4-tetrahydro-pyrimidine-5-carboxylic acid 3-(2-fluoro-thiophen-3-yl)-propyl ester], the half-inhibitory concentration (IC50) is, setting by setting: under setting [1], 22 µM; under setting [2], greater than 20 µM.
For `COc1c(C)cc(COC(=O)C2=C(C)NC(=S)NC2)cc1C` [Compound 180, 6-methyl-2-thioxo-1,2,3,4-tetrahydro-pyrimidine-5-carboxylic acid 4-methoxy-3,5-dimethyl-benzyl ester], in that order: 0.8 µM and less than 1 µM.
Consider `CCCCCCCCNC(=O)CCCCCOC(=O)C1=C(C)NC(=S)NC1` [19′, 6-methyl-2-thioxo-1,2,3,4-tetrahydro-pyrimidine-5-carboxylic acid 5-octylcarbamoyl-pentyl ester], for which the IC50 under setting [1] is greater than 100 µM and the IC50 under setting [2] is greater than 20 µM.
For `CC1=C(C(=O)OCCc2ccc(OCc3ccccc3)cc2)C(CO)NC(=S)N1` (stereo not shown) [27″, 4-hydroxymethyl-6-methyl-2-thioxo-1,2,3,4-tetrahydro-pyrimidine-5-carboxylic acid 2-(4-benzyloxy-phenyl)-ethyl ester], in that order: 0.4 µM and less than 1 µM.
For `COc1cscc1CCOC(=O)C1=C(C)NC(=S)NC1CF` (stereo not shown) [41′, 4-fluoromethyl-6-methyl-2-thioxo-1,2,3,4-tetrahydro-pyrimidine-5-carboxylic acid 2-(4-methoxy-thiophen-3-yl)-ethyl ester] the same measures were 15 µM and 10 to 20 µM.
Consider `CC1=C(C(=O)OCC#CCOCc2ccccc2)CNC(=S)N1` [Compound 214, 6-methyl-2-thioxo-1,2,3,4-tetrahydro-pyrimidine-5-carboxylic acid 4-benzyloxy-but-2-inyl ester], for which the half-maximal inhibitory concentration (IC50) under setting [3] was less than 0.4 µM.
For `CC1=C(C(=O)OCCCc2ccccc2)CNC(=S)N1` [Compound 14, 6-methyl-2-thioxo-1,2,3,4-tetrahydro-pyrimidine-5-carboxylic acid 3-phenyl-propyl ester], the IC50 under setting [1] was 0.2 µM and the half-maximal inhibitory concentration (IC50) under setting [2] is less than 1 µM.
Regarding `CC1=C(C(=O)OCc2ccc(C)s2)CNC(=S)N1` [Compound 232, 6-methyl-2-thioxo-1,2,3,4-tetrahydro-pyrimidine-5-carboxylic acid 5-methyl-thiophen-2-ylmethyl ester], the 50% inhibitory concentration (IC50) under setting [1] came out at 20 µM and the IC50 under setting [2] lay in the range of 10 to 20 µM.
For `CC1=C(C(=O)O[C@H](C)c2ccccc2)CNC(=S)N1` [Compound 23, 6-methyl-2-thioxo-1,2,3,4-tetrahydro-pyrimidine-5-carboxylic acid (R)-1-phenyl-ethyl ester], in that order: 5.4 µM and 1 to 10 µM.
For `CC1=C(C(=O)OCCc2ccc(Cl)s2)C(CO)NC(=S)N1` (stereo not shown) [1″, 4-hydroxymethyl-6-methyl-2-thioxo-1,2,3,4-tetrahydro-pyrimidine-5-carboxylic acid 2-(5-chloro-thiophen-2-yl)-ethyl ester], in that order: 1.6 µM and 1 to 10 µM.
For `C=CCOC(=O)C1=C(C)NC(=S)NC1` [Compound 16, 6-methyl-2-thioxo-1,2,3,4-tetrahydro-pyrimidine-5-carboxylic acid allyl ester], in that order: 74 µM and greater than 20 µM.
